This is an account of results in patent US20220202610A1, “CONTACT LENS WITH SUSTAINED RELEASE PROPERTY” (priority 2020, published 2022).

The nature of series [1]: Release of lens drug (menthol): drug loading, moist heat sterilization and release in saline, HPLC. The format is physicochemical. As to conditions: 121° C., 30 minutes.
Experimental: (§1) Sampling time point: 0, 2, 4 and 8 hours (N=3)
First group: P-2.5HPC7/P6k-38CL
(1) Single drug-loaded lens was placed in a 5 mL ampoule. 1 mL of saline was added as a release medium. The lens was placed in a shake oven (MS Hybridization Shaking Oven, MO-AOR, Major Science), and a drug release test was conducted under the operating parameters of 35° C. and 100 rpm. No release solution was replaced throughout. Sampling: the lens was taken out at each time point. The drug was extracted with ethanol (98 wt %). The drug content was analyzed by HPLC with RP-C18 column. After the lens was taken out, no drug release test was performed.
(2) The extraction method of menthol in the lens: one lens was taken out of the ampoule used for the release test. Lens surface moisture was fully absorbed with a lens cleaning paper. The one lens was immersed in 1 mL of ethanol (98 wt %) to stand for 8 hours to extract the drug. Then the drug content was analyzed by HPLC.
A short description of series [2]: Release of lens drug (dexamethasone): drug loading, moist heat sterilization and release in saline, HPLC. The format is physicochemical. Particulars: 121° C., 30 minutes.
Experimental: as §1
(1) Single drug-loaded lens was placed in a 5 mL ampoule. 1 mL of saline was added as a release medium. The lens was placed in a shake oven (MS Hybridization Shaking Oven, MO-AOR, Major Science), and a drug release test was conducted under the operating parameters of 35° C. and 100 rpm. The drug release solution was replaced with fresh saline every 2 hours.
(2) The drug content in the lens preservation solution and the drug content in the lens were analyzed by HPLC with RP-C18 column. The extraction method of drug (Dexamethasone, DEX) in the lens: one lens was taken out of the preservation solution. Lens surface moisture was fully absorbed with a lens cleaning paper. The one lens was immersed in 1 mL of methanol to stand for 8 hours to extract the drug. Then the drug content was analyzed by HPLC.

As for `CC1CCC(C(C)C)C(O)C1` (centres unmarked) [menthol], the “menthol in the lens preservation solution after the moist heat sterilization” value in series [1] is recorded as “most of the menthol in the lens preservation solution escapes”.

As for `Cn1c(=O)c2c(ncn2C)n(C)c1=O` [caffeine], the “loss caused by the moist heat sterilization” value in series [2] is “hardly causes the loss”.
